Tests used:
Type in all cases: in vivo
[1] = system: barnyardgrass (Echinochloa crus-galli); experiment: Test G Pre-Emergence Protocol; details: Echinochloa crus-galli, pre-emergence, 312 h, evaluated after 13 days
How it was run: (§1)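 One day after sowing, pots are treated with a spray of test compound formulated in acetone/water 50:50 plus 0.5% Tween 20, giving 15.625, 62.5 or 250 g/ha. Evaluation on a 0–100 damage scale follows 13 days of glasshouse growth.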

[2] = system: corn (Zea mays); experiment: Test G Pre-Emergence Protocol; details: Zea mays, pre-emergence, 312 h, evaluated after 13 days
How it was run: as §1

[3] = system: giant foxtail (Setaria faberi); experiment: Test G Pre-Emergence Protocol; details: Setaria faberi, pre-emergence, 312 h, evaluated after 13 days
How it was run: as §1

[4] = system: ivy-leaved morning glory (Ipomoea hederacea); experiment: Test G Pre-Emergence Protocol; details: Ipomoea, pre-emergence, 312 h, evaluated after 13 days
How it was run: as §1

[5] = system: redroot pigweed (Amaranthus retroflexus); experiment: Test G Pre-Emergence Protocol; details: Amaranthus retroflexus, pre-emergence, 312 h, evaluated after 13 days
How it was run: as §1

[6] = system: velvetleaf (Abutilon theophrasti); experiment: Test G Pre-Emergence Protocol; details: Abutilon theophrasti, pre-emergence, 312 h, evaluated after 13 days
How it was run: as §1

[7] = system: barnyardgrass (Echinochloa crus-galli); experiment: Test G Post-Emergence Protocol; details: Echinochloa crus-galli, post-emergence, 312 h, read-out: Barnyardgrass damage rating
How it was run: (§2)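 Eight days post-sowing, plants received a spray of test compound (acetone/water 50:50, 0.5% Tween 20) at 15.625, 62.5 or 250 g/ha. Glasshouse regime thereafter: 24/16 °C, 14 h light, 65% humidity. Assessment after 13 days on a 0–100 damage scale.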

[8] = system: corn (Zea mays); experiment: Test G Post-Emergence Protocol; details: Zea mays, post-emergence, 312 h, read-out: Corn damage rating
How it was run: as §2

[9] = system: giant foxtail (Setaria faberi); experiment: Test G Post-Emergence Protocol; details: Setaria faberi, post-emergence, 312 h, read-out: Foxtail, Giant damage rating
How it was run: as §2

[10] = system: ivy-leaved morning glory (Ipomoea hederacea); experiment: Test G Post-Emergence Protocol; details: Ipomoea, post-emergence, 312 h, read-out: Morningglory, Ivy-leaved damage rating
How it was run: as §2

[11] = system: redroot pigweed (Amaranthus retroflexus); experiment: Test G Post-Emergence Protocol; details: Amaranthus retroflexus, post-emergence, 312 h, read-out: Pigweed, Redroot damage rating
How it was run: as §2

[12] = system: velvetleaf (Abutilon theophrasti); experiment: Test G Post-Emergence Protocol; details: Abutilon theophrasti, post-emergence, 312 h, read-out: Velvetleaf damage rating
How it was run: as §2

[13] = 15.625 g ai/ha, evaluated after 13 days (100=total damage to plant; 0=no damage to plant)
[14] = 62.5 g ai/ha, evaluated after 13 days, 100=total damage to plant, 0=no damage to plant
[15] = 250 g ai/ha, evaluated after 13 days, 100=total damage to plant, 0=no damage to plant

Cc1cc(C2CN(C)C(=O)C2C(=O)Nc2cccc(F)c2F)cc(C(F)(F)F)c1 (stereo not drawn) [Compound 1723]
pest or weed control at 15.625 g/ha ([1]; 15.625 g ai/ha, read-out: Barnyardgrass damage rating (100=total damage to plant; 0=no damage to plant)): 10% | pest or weed control at 62.5 g/ha ([1]; 62.5 g ai/ha, 100=total damage to plant, 0=no damage to plant, read-out: Barnyardgrass damage rating): 40% | pest or weed control at 250 g/ha ([1]; 250 g ai/ha, read-out: Barnyardgrass damage rating (100=total damage to plant; 0=no damage to plant)): 90% | plant injury at 15.625 g/ha ([2]; 15.625 g ai/ha, read-out: Corn damage rating (100=total damage to plant; 0=no damage to plant)): 0% | plant injury at 62.5 g/ha ([2]; 62.5 g ai/ha, 100=total damage to plant, 0=no damage to plant, read-out: Corn damage rating): 0% | plant injury at 250 g/ha ([2]; 250 g ai/ha, read-out: Corn damage rating (100=total damage to plant; 0=no damage to plant)): 60% | pest or weed control at 15.625 g/ha ([3]; 15.625 g ai/ha, read-out: Foxtail, Giant damage rating (100=total damage to plant; 0=no damage to plant)): 60% | pest or weed control at 62.5 g/ha ([3]; 62.5 g ai/ha, 100=total damage to plant, 0=no damage to plant, read-out: Foxtail, Giant damage rating): 70% | pest or weed control at 250 g/ha ([3]; 250 g ai/ha, read-out: Foxtail, Giant damage rating (100=total damage to plant; 0=no damage to plant)): 90% | pest or weed control at 15.625 g/ha ([4]; 15.625 g ai/ha, read-out: Morningglory, Ivy-leaved damage rating (100=total damage to plant; 0=no damage to plant)): 0% | pest or weed control at 62.5 g/ha ([4]; 62.5 g ai/ha, 100=total damage to plant, 0=no damage to plant, read-out: Morningglory, Ivy-leaved damage rating): 0% | pest or weed control at 250 g/ha ([4]; 250 g ai/ha, read-out: Morningglory, Ivy-leaved damage rating (100=total damage to plant; 0=no damage to plant)): 10% | pest or weed control at 15.625 g/ha ([5]; 15.625 g ai/ha, read-out: Pigweed, Redroot damage rating (100=total damage to plant; 0=no damage to plant)): 0% | pest or weed control at 62.5 g/ha ([5]; 62.5 g ai/ha, 100=total damage to plant, 0=no damage to plant, read-out: Pigweed, Redroot damage rating): 0% | pest or weed control at 250 g/ha ([5]; 250 g ai/ha, read-out: Pigweed, Redroot damage rating (100=total damage to plant; 0=no damage to plant)): 30% | pest or weed control at 15.625 g/ha ([6]; 15.625 g ai/ha, read-out: Velvetleaf damage rating (100=total damage to plant; 0=no damage to plant)): 0% | pest or weed control at 62.5 g/ha ([6]; 62.5 g ai/ha, 100=total damage to plant, 0=no damage to plant, read-out: Velvetleaf damage rating): 0% | pest or weed control at 250 g/ha ([6]; 250 g ai/ha, read-out: Velvetleaf damage rating (100=total damage to plant; 0=no damage to plant)): 10% | pest or weed control at 15.625 g/ha [7, 13]: 30% | pest or weed control at 62.5 g/ha [7, 14]: 80% | pest or weed control at 250 g/ha [7, 15]: 80% | plant injury at 15.625 g/ha [8, 13]: 30% | plant injury at 62.5 g/ha [8, 14]: 60% | plant injury at 250 g/ha [8, 15]: 70% | pest or weed control at 15.625 g/ha [9, 13]: 70% | pest or weed control at 62.5 g/ha [9, 14]: 80% | pest or weed control at 250 g/ha [9, 15]: 80% | pest or weed control at 15.625 g/ha [10, 13]: 30% | pest or weed control at 62.5 g/ha [10, 14]: 70% | pest or weed control at 250 g/ha [10, 15]: 40% | pest or weed control at 15.625 g/ha [11, 13]: 20% | pest or weed control at 62.5 g/ha [11, 14]: 20% | pest or weed control at 250 g/ha [11, 15]: 30% | pest or weed control at 15.625 g/ha [12, 13]: 10% | pest or weed control at 62.5 g/ha [12, 14]: 10% | pest or weed control at 250 g/ha [12, 15]: 20%

From patent publication US12077503B2, “Substituted cyclic amides and their use as herbicides” (FMC CORPORATION, priority 2015, dated 2024)
